Where a name gives a salt, the structure may show the parent alone.
Legend:
[1] = Acute IV toxicity in the mouse; type: in vivo
physchem [2] = assay: physchem
[3] = pH of a 1% solution in water; type: physicochemical
in vivo = details: both; for NOAEL at 28 day: marmoset
Procedure: A repeated-dose, 4-week toxicity study was conducted in male and female rats, where single, daily IV bolus doses up to 60 mg/kg were given. […] A 28-day toxicity study was also conducted in male and female marmosets, where iclaprim mesylate was infused intravenously over a 20-minute interval.

[4] = Acute IV toxicity in rats; details: rat, in vivo
physchem [5] = details: 20 °C, water
[6] = test system: acute bacterial skin and skin structure infections (ABSSSIs) suspected or confirmed to be due to Gram-positive pathogens; assay: Phase III REVIVE-1 study, efficacy of fixed dose iclaprim versus vancomycin; type: in vivo, human; details: ITT
Procedure: Subjects were evaluated daily up to ETP, then every 48 to 72 hours through the end of treatment. If the last dose of study drug fell on a day when an evaluation was not planned, an additional evaluation visit was performed on that day (i.e., all EOT evaluations were performed on the last day [+2 days] of drug dose).
The infusion time and duration of treatment for both groups was 2 hours and 5 days (minimum duration) to 14 days (maximum duration), respectively.
The primary endpoint for clinical response (defined as the reduction in lesion size ≥20% compared to baseline) was evaluated in all randomized subjects at ETP (48 to 72 hours post-first dose). […] In addition, clinical outcome was evaluated by the investigator at EOT and TOC (7 to 14 days post EOT). The assessments of clinical outcome was categorized as cure, failure, or indeterminate.
Iclaprim was administered at a dose of 80 mg in 500 mL normal saline, infused over 2 hours q12h (every 12 hours) for 5 to 14 days. For subjects with moderate hepatic impairment (Child-Pugh Class B), iclaprim was administered at a dose of 40 mg in 500 mL normal saline, infused over 2 hours q12h for 5 to 14 days.
Dosing interval was every q12 h, q24 h, q48 h, or dosed by daily level based on creatinine clearance.
The primary efficacy endpoint was the proportion of randomized subjects who achieved an early clinical response (defined as reduction in the lesion size ≥20% compared to baseline) at 48 to 72 hours (ETP) and was evaluated among all randomized subjects (ITT population).
The NI bound were 10%. […] Equivalently, if the lower bound of the two-sided 95% CI for P1-P2 was greater than −0.100 based on the Z test with unpooled variance estimate, NI was concluded.

[7] = Phase III REVIVE-1 study, safety (adverse events); details: REVIVE-1 safety population
Procedure: All subjects who received any study drug were evaluated for safety on the basis of medical history and physical examinations, reports of clinical AEs, routine electrocardiography, and clinically significant findings from routine liver function tests, serum chemistry, hematology, coagulation, and urinalysis (UA) tests. All adverse events were recorded throughout the study period, up to and including the LFU phone call. While blinded to treatment assignment, the investigator categorized the severity of each AE and the potential for relationship to study drug. Serious AEs (SAEs) include those that were life threatening, led to prolongation of the existing hospitalization, a congenital anomaly/birth defect, or caused persistent or significant disability, incapacity, or death. Treatment-emergent AEs (TEAEs) were defined as those that start or worsen in severity during or after the first dose of study drug administration through end of study.
Safety evaluation included incidence of TEAEs, laboratory test results (including liver function tests), vital signs, ECG results, and physical examination findings. All summaries of safety data was based on the safety population (all treated subjects).
The AE summary tables included subject (patient) counts. Therefore, if a subject experienced more than one episode of a particular AE, the subject was counted only once for that event. If a subject had more than one AE that was coded to the same preferred term, the subject was counted only once for that preferred term. Similarly, if a subject had more than one AE within a SOC, the subject was counted only once in that SOC.

[8] = in vivo, iv; cited from earlier work
[9] = human, in vivo

In the case of `COc1cc(Cc2cnc(N)nc2N)c2c(c1OC)OC(C1CC1)C=C2` (racemic) [iclaprim mesylate, 5-[(2RS)-2-cyclopropyl-7,8-dimethoxy-2Hchromen-5-ylmethyl] pyrimidine-2,4-diamine methanesulfonate], the “HED of lowest lethal IV dose” value [1] is reported as 6.1 mg/kg, the “lowest lethal IV dose” value [1] is reported as 75 mg/kg and the pKa (physchem [2]) is reported as 7.2. The “pH value of a 1% solution in water” value [3] was 4.2, the NOAEL at 28 day (in vivo) was 3.9 mg/kg/day and the NOAEL at 28 day (in vivo; iv) was 30 mg/kg/day. The “dosage with histopathological changes at the injection sites” value (in vivo; rat, iv, 4 week) was ≥ 10 mg/kg/day, the NOAEL at 4 week (in vivo; rat, iv, HED of NOAEL) was 3.9 mg/kg/day and the NOAEL at 4 week (in vivo; rat, iv, NOAEL) was > 30 mg/kg/day. The LD50 ([4]; female rats) was > 200 mg/kg, the LD50 ([4]; male rats) was 150 to 200 mg/kg and the solubility (physchem [5]) was ~10000 µg/mL.

For `CN[C@H](CC(C)C)C(=O)N[C@H]1C(=O)N[C@@H](CC(N)=O)C(=O)N[C@H]2C(=O)N[C@H]3C(=O)N[C@H](C(=O)N[C@H](C(=O)O)c4cc(O)cc(O)c4-c4cc3ccc4O)[C@H](O)c3ccc(c(Cl)c3)Oc3cc2cc(c3O[C@@H]2O[C@H](CO)[C@@H](O)[C@H](O)[C@H]2O[C@H]2C[C@](C)(N)[C@H](O)[C@H](C)O2)Oc2ccc(cc2Cl)[C@H]1O` [Vancomycin, vancomycin, reference compound], the “Early Clinical Response (ECR), percent of subjects” value ([6]; ETP (48 to 72 hours)) was 81.0%, the “Clinical cure, number of subjects” value ([6]; TOC (7 to 14 days after study drug discontinuation)) was 261 and the “Clinical cure, percent of subjects” value ([6]; TOC) was 87.0%. For the same compound, the “Deaths, number of subjects” value [7] was 1, the “Deaths, percent of subjects” value [7] was 0.3% and the “Study drug related TEAEs, number of subjects” value [7] was 53. The “Study drug related TEAEs, percent of subjects” value [7] was 17.8%, the “TEAE-related SAEs (Serious AEs), number of subjects” value [7] was 12 and the “TEAE-related SAEs (Serious AEs), percent of subjects” value [7] was 4.0%. The “TEAEs (Treatment Emergent Adverse Events), number of subjects” value [7] was 128, the “TEAEs (Treatment Emergent Adverse Events), percent of subjects” value [7] was 43.1% and the “TEAEs leading to discontinuation of study drug, number of subjects” value [7] was 13. The “TEAEs leading to discontinuation of study drug, percent of subjects” value [7] was 4.4%.

In the case of `CC[C@H]1OC(=O)[C@H](C)[C@@H](O[C@H]2C[C@@](C)(OC)[C@@H](O)[C@H](C)O2)[C@H](C)[C@@H](O[C@@H]2O[C@H](C)C[C@H](N(C)C)[C@H]2O)[C@](C)(OC)C[C@@H](C)C(=O)[C@H](C)[C@@H](O)[C@]1(C)O` [clarithromycin], the QTc prolongation [8] is given as 3 to 11 ms.

In the case of `CC(=O)NC[C@H]1CN(c2ccc(N3CCOCC3)c(F)c2)C(=O)O1` [linezolid, reference compound], the “adverse events related to QTc prolongation” value [9] is reported as 2 cases.

Reference: US10076522B2, “Systems and methods for treating bacterial infection” (priority 2016, dated 2018)
